According to the supplement of paper PMC11821682:

Experiments:
Danio rerio embryo [1] = experiment: BMC10 mortality 24-120 hpf; higher = less toxic
Description: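 ZBEscreen: dechorionated Tropical 5D zebrafish embryos were exposed from 4 hpf in 96-well plates (1% DMSO, 28 °C). All compounds were first tested at 100 µM; hits were retested at 0.005-100 µM. Morphology and mortality were scored at 120 hpf and fitted as BMC10 (3-parameter log-logistic, extra risk). The embryonic photomotor response at 24 hpf and the larval photomotor response at 120 hpf are given as lowest effect levels (K-S test, p<0.01). NA = not significant up to 100 µM; NT = not tested.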

Danio rerio embryo [2] = experiment: LEL larval photomotor response dark phase 120 hpf
Danio rerio embryo [3] = experiment: LEL embryonic photomotor response 24 hpf
HL-60 = experiment: Cell Health Index (toxicity pseudo-probability over dose series) (index 0-1); higher = more cytotoxic / cell stress;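 also: HL-60 cells exposed 4 h at 37 °C to ten threefold dilutions spanning 5 nM to 100 µM, multiparametric flow cytometry features scored by machine-learning classification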
Danio rerio embryo [4] = experiment: BMC10 any morphological effect or mortality at 120 hpf; higher = less toxic

Row | Structure (SMILES) | BMC10 mortality 24-120 hpf (Danio rerio embryo [1]) | LEL larval photomotor response dark phase 120 hpf (Danio rerio embryo [2]) | LEL embryonic photomotor response 24 hpf (Danio rerio embryo [3]) | Cell Health Index (HL-60) | BMC10 any morphological effect or mortality (Danio rerio embryo [4])
1 | COc1ccc2cc1Oc1ccc(cc1)C[C@H]1c3c(cc4c(c3Oc3cc5c(cc3OC)CCN(C)[C@@H]5C2)OCO4)CCN1C [Cepharanthine] | 10.9 µM | 0.41 µM | > 100 µM | 0.911 | 10.5 µM
2 | CN1Cc2c(ccc3c2OCO3)[C@@H]2[C@H]1c1cc3c(cc1C[C@@H]2O)OCO3 [Chelidonine] | 0.079 µM | > 100 µM | > 100 µM | 0.277 | 0.064 µM
3 | CN1CCN(C(c2ccccc2)c2ccc(Cl)cc2)CC1.Cl (stereo not given) [Chlorcyclizine] | 15.9 µM | > 100 µM | 11.1 µM | 0.478 | 8.84 µM
4 | O=c1cc(-c2ccccc2)oc2cc(O)cc(O)c12 [Chrysin] | 28.3 µM | 11.1 µM | 33.3 µM | 0.435 | 28.6 µM
5 | CC(=O)O[C@H]1[C@H]2O[C@]23[C@@H]2CC[C@@H]4C[C@@H](O)CC[C@]4(C)[C@H]2CC[C@]3(C)[C@H]1c1ccc(=O)oc1 [Cinobufagin] | 29.9 µM | 33.3 µM | 1.23 µM | 0.556 | 27.2 µM
6 | Cl.Clc1ccc(Cn2c(CN3CCCC3)nc3ccccc32)cc1 [Clemizole] | 10.1 µM | > 100 µM | 3.7 µM | 0.453 | 4.04 µM
7 | C/C=C(/C)C(=O)OC(C)(C)[C@@H]1Cc2c(ccc3ccc(=O)oc23)O1 [Columbianadin] | 4.89 µM | > 100 µM | 3.7 µM | 0.399 | 4.14 µM
8 | COc1cc(/C=C\C(=O)CC(=O)/C=C\c2ccc(O)c(OC)c2)ccc1O [Curcumin] | 40 µM | > 100 µM | > 100 µM | 0.401 | 30.8 µM
9 | c1ccc(CNc2nc(NCc3ccccc3)c3ccccc3n2)cc1 [DBeQ] | 1.31 µM | > 100 µM | 1.23 µM | 0.929 | 1.15 µM
10 | CCC[C@H](NC(=O)/C(C#N)=C/c1cccc(Br)n1)c1ccccc1 [Degrasyn] | 1.92 µM | > 100 µM | 1.23 µM | 0.909 | 0.411 µM
11 | O[C@H]1CC[C@H](Nc2nc(-c3ccccc3)nc3[nH]ccc23)CC1 [Derenofylline] | 36.8 µM | > 100 µM | 100 µM | 0.201 | 22.7 µM
12 | C[C@H]1[C@@H](O)O[C@@H]2O[C@@]3(C)CC[C@H]4[C@H](C)CC[C@@H]1[C@@]24OO3 [Dihydroartemisinin] | 2.11 µM | 1.23 µM | > 100 µM | 0.215 | 2.99 µM
13 | COc1cccc2c1C(=O)c1c(O)c3c(c(O)c1C2=O)C[C@@](O)(C(=O)CO)C[C@@H]3O[C@H]1C[C@H](N)[C@H](O)[C@H](C)O1.Cl [Doxorubicin] | 7.71 µM | > 100 µM | 11.1 µM | 0.852 | 3.18 µM
14 | O=C(N/N=C/c1ccc(O)c(O)c1)c1cc2ccccc2cc1O [Dynasore] | 7.92 µM | > 100 µM | 33.3 µM | 0.48 | 10.2 µM
15 | CC(C)(C)c1cc(C(=O)/C(C#N)=N/Nc2cccc(Cl)c2)no1 [ESI-09] | 0.13 µM | > 100 µM | 11.1 µM | 0.698 | 0.422 µM
16 | O=C1Nc2ccc(Cl)cc2[C@@](C#CC2CC2)(C(F)(F)F)O1 [Efavirenz] | 12 µM | > 100 µM | 3.7 µM | 0.874 | 1.3 µM
17 | COc1ccc2cc1Oc1ccc(cc1)C[C@H]1c3cc(c(OC)cc3CCN1C)Oc1c(O)c(OC)cc3c1[C@H](C2)N(C)CC3 [Fangchinoline] | 46.2 µM | > 100 µM | > 100 µM | 0.884 | 6.15 µM
18 | CN1CC[C@H](c2c(O)cc(O)c3c(=O)cc(-c4ccccc4Cl)oc23)[C@H](O)C1.Cl [Flavopiridol] | 1.71 µM | > 100 µM | 3.7 µM | 0.49 | 1.2 µM
19 | NC(=O)c1cccc(-c2cc(Nc3ccc(OC(F)(F)F)cc3)ncn2)c1 [GNF-2] | 4.78 µM | > 100 µM | 11.1 µM | 0.869 | 3.7 µM
20 | O=C(NCCO)c1cccc(-c2cc(Nc3ccc(OC(F)(F)F)cc3)ncn2)c1 [GNF-5] | 36.2 µM | 33.3 µM | > 100 µM | 0.81 | 28.6 µM
21 | O=c1c(O)c(-c2ccccc2)oc2cc(O)cc(O)c12 [Galangin] | 32.8 µM | > 100 µM | 100 µM | 0.411 | 12.3 µM
22 | CC1(C)C=Cc2c(ccc3c2OC[C@@H](c2ccc(O)cc2O)C3)O1 [Glabridin] | 9.73 µM | > 100 µM | 11.1 µM | 0.58 | 3.57 µM
23 | Fc1cc(F)c2c(c1)C1C=CCC1C(c1cccnc1)N2 (stereo not given) [Golgicide A] | 2.32 µM | > 100 µM | 3.7 µM | 0.317 | 1.37 µM
24 | CC(C)(C)Oc1cccc2nc(N)nc(N)c12 [HZ-1157] | 16.1 µM | > 100 µM | 33.3 µM | 0.463 | > 100 µM
25 | COC(=O)C[C@](O)(CCC(C)(C)O)C(=O)O[C@@H]1C(OC)=C[C@]23CCCN2CCc2cc4c(cc2[C@H]13)OCO4 [Harringtonine] | 26.6 µM | > 100 µM | 33.3 µM | 0.376 | 10.8 µM
26 | CC(C)c1cccc(=O)c(O)c1 [Hinokitiol] | 10.1 µM | > 100 µM | 33.3 µM | 0.335 | 3.83 µM

Row | Structure (SMILES) | BMC10 mortality 24-120 hpf (Danio rerio embryo [1]) | LEL larval photomotor response dark phase 120 hpf (Danio rerio embryo [2]) | LEL embryonic photomotor response 24 hpf (Danio rerio embryo [3]) | Cell Health Index (HL-60) | BMC10 any morphological effect or mortality (Danio rerio embryo [4])
27 | C=CCc1ccc(O)c(-c2ccc(O)c(CC=C)c2)c1 [Honokiol] | 9.2 µM | > 100 µM | 3.7 µM | 0.542 | 5.7 µM
28 | O=C1C=CC2=C(C(OC/C=C(C)/C)=C(OC=C3)C3=C2)O1 [Imperatorin] | 10.8 µM | > 100 µM | 3.7 µM | 0.307 | 2.05 µM
29 | NC(=O)c1ccc(I)c([N+](=O)[O-])c1 [Iniparib] | 33.9 µM | > 100 µM | 33.3 µM | 0.283 | 10.2 µM
30 | CCC(C)n1ncn(-c2ccc(N3CCN(c4ccc(OC[C@H]5CO[C@](Cn6cncn6)(c6ccc(Cl)cc6Cl)O5)cc4)CC3)cc2)c1=O (stereo not given in full) [Itraconazole] | 0.276 µM | 0.41 µM | 3.7 µM | 0.382 | 0.113 µM
31 | CC[C@H](C)[C@H]1O[C@]2(CC[C@@H]1C)C[C@@H]1C[C@@H](C/C=C(\C)[C@@H](O[C@H]3C[C@H](OC)[C@@H](O[C@H]4C[C@H](OC)[C@@H](O)[C@H](C)O4)[C@H](C)O3)[C@@H](C)/C=C/C=C3\CO[C@@H]4[C@H](O)C(C)=C[C@@H](C(=O)O1)[C@]34O)O2 [Ivermectin B1a] | 4.04 µM | 0.41 µM | 1.23 µM | 0.687 | 0.156 µM
32 | COc1oc(=O)c2cc(N)ccc2c1Cl [JCP251] | 71.8 µM | 11.1 µM | 100 µM | 0.306 | 42.2 µM
33 | CNc1ccc([N+](=O)[O-])c(Nc2ccc3[nH]ncc3c2)n1 [KRIBB11] | 0.805 µM | 1.23 µM | 11.1 µM | 0.372 | 3.27 µM
34 | O=c1c(O)c(-c2ccc(O)cc2)oc2cc(O)cc(O)c12 [Kaempferol] | 38.4 µM | > 100 µM | > 100 µM | 0.463 | 10 µM
35 | CC(C)c1cnn2c(NCc3ccccc3-n3cccn3)nc(OC3CCCNC3)nc12 (stereo not given) [LDC-4297] | 32.8 µM | > 100 µM | 33.3 µM | 0.847 | 15.3 µM
36 | C=CC(C)(C)c1cc(/C=C/C(=O)c2ccc(O)cc2)c(OC)cc1O [Licochalcone A] | 1.16 µM | > 100 µM | 3.7 µM | 0.828 | 0.64 µM
37 | Cc1cnc(-c2ccccc2C(C)C)nc1NCc1ccc(-n2ccnn2)cc1 [ML-323] | 10.5 µM | > 100 µM | 11.1 µM | 0.577 | 9.11 µM
38 | CN(C)CCCNC(=O)c1ccc(-c2cc(O)c3ncccc3c2)cc1 [ML-324] | 15.9 µM | > 100 µM | 11.1 µM | 0.537 | 15.9 µM
39 | O=C(Nc1cccc(NC(=O)c2cccc(O)c2O)c1)c1cccc(O)c1O [MST-312] | 74.3 µM | > 100 µM | 100 µM | 0.688 | 65.3 µM
40 | CC1(C)CC[C@]2(C(=O)O)CC[C@]3(C)C(=CC[C@@H]4[C@@]5(C)C[C@@H](O)[C@H](O)C(C)(C)C5CC[C@]43C)[C@H]2C1 (stereo not given in full) [Maslinic acid] | 13.3 µM | > 100 µM | > 100 µM | 0.494 | 13.3 µM
41 | Cl.O[C@@H](c1cc(C(F)(F)F)nc2c(C(F)(F)F)cccc12)[C@H]1CCCCN1 [Mefloquine] | 10.7 µM | > 100 µM | 0.015 µM | 0.931 | 8.89 µM
42 | CC(=O)O[C@]1(C(C)=O)CC[C@H]2[C@@H]3C=C(C)C4=CC(=O)CC[C@]4(C)[C@H]3CC[C@@]21C [Megestryl acetate] | 9.53 µM | > 100 µM | 11.1 µM | 0.449 | 4.08 µM
43 | CC[C@@]1([C@@H]2O[C@@H]([C@H]3O[C@@](O)(CO)[C@H](C)C[C@@H]3C)C[C@@H]2C)CC[C@H]([C@]2(C)CC[C@]3(C[C@H](O)[C@@H](C)[C@@H]([C@@H](C)[C@@H](OC)[C@H](C)C(=O)[O-])O3)O2)O1.[Na+] [Monensin] | 28.5 µM | 0.005 µM | > 100 µM | 0.493 | 27.5 µM
44 | COc1c(C)c2c(c(O)c1C/C=C(\C)CCC(=O)O)C(=O)OC2 [Mycophenolic acid] | 1.93 µM | > 100 µM | 11.1 µM | 0.204 | 1.23 µM
45 | CCCCCCC(=O)CCCCCC/C=C/C[C@@H](O)[C@H](O)[C@@](N)(CO)C(=O)O [Myriocin] | 1.46 µM | > 100 µM | > 100 µM | 0.324 | 1.03 µM
46 | CC(C)C(=O)SCCCCCCC(=O)Nc1nc(-c2ccccc2)cs1 [NCH-51] | 0.624 µM | > 100 µM | 0.41 µM | 0.268 | 0.188 µM
47 | CCCCCCCCCCCCCCCC[n+]1ccn(Cc2ccccc2)c1C.[I-] [NH125 parent] | 8.53 µM | > 100 µM | 33.3 µM | 0.949 | 7.19 µM
48 | CCCCCCCC/C=C\CCCCCCCCCCCCCC(=O)O [Nervonic acid] | 31 µM | > 100 µM | > 100 µM | 0.175 | 30.9 µM
49 | CC(=O)Oc1ccccc1C(=O)Nc1ncc([N+](=O)[O-])s1 [Nitazoxanide] | 45.9 µM | > 100 µM | > 100 µM | 0.723 | 44.9 µM
50 | N[C@H]1C[C@@H]1c1ccc(-c2cccc(O)c2)cc1 [OG-L002] | 15.4 µM | > 100 µM | 0.015 µM | 0.334 | 3.27 µM
51 | COc1ccc(C(=O)O[C@H]2[C@H](O[C@@H]3[C@@H](OC(C)=O)[C@H](O[C@H]4C[C@H]5[C@@H]6CC=C7C[C@@H](O)CC[C@]7(C)[C@H]6CC[C@]5(C)[C@@]4(O)[C@H](C)C(=O)CCC(C)C)OC[C@@H]3O)OC[C@@H](O)[C@@H]2O)cc1 [OSW-1] | 0.03 µM | 0.14 µM | > 100 µM | 0.822 | 0.03 µM
